Results: PMC6893898, “Receptor Interaction Profiles of 4-Alkoxy-Substituted 2,5-Dimethoxyphenethylamines and Related Amphetamines” (Frontiers in Pharmacology, 2019)

How the values were obtained:
human TAAR1 = target: T1, human TAAR1 (Homo sapiens, UniProt Q96RJ0); assay: Activity at the human TAAR1 (cAMP, HEK 293 cells); format: cell-based; conditions: human TAAR1 EC50 ± SD
T1 construct: expressed in transfected cells; host or cells: HEK 293 (recombinant, Geneticin/hygromycin B selection)
T1 sequence (Q96RJ0 1-339): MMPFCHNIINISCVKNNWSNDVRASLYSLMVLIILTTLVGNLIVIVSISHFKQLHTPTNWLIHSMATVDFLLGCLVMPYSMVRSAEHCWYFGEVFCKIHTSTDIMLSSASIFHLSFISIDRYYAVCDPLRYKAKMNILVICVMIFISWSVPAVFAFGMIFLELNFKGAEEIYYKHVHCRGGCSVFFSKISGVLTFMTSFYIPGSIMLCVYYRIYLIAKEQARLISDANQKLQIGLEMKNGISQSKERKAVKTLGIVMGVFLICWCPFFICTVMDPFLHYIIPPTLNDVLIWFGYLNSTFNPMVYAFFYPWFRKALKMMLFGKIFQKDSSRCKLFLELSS
Method: Activity at the human TAAR1 was examined as previously described in full detail ([Luethi et al., 2018]). In summary, human TAAR1 expressing recombinant HEK 293 cells were grown in 250 ml falcon culture flasks containing 30 ml of high glucose DMEM (10% heat inactivated fetal calf serum, 500 µg/ml Geneticin [Gibco, Zug, Switzerland] and 500 µg/ml hygromycin B) at 37°C and 5% CO2/95% air. At 80-90% confluency, the cells were collected. The medium was aspirated, cells were washed with phosphate-buffered saline (PBS) and then trypsinized for 5 min at 37°C with 5 ml of trypsin/EDTA solution. Next, 45 ml of medium was added and the mixture was transferred into a falcon tube. After centrifugation (900 rpm, 3 min, RT), the supernatant was aspirated and the remaining cell pellet was resuspended in fresh medium to […]. Using a multipipette, 100 µl of cells were transferred (80,000 cells/well) into a 96-well plate (BIOCOAT 6640, Becton Dickinson, Allschwil, Switzerland) and incubated for 20 h at 37°C. For the cAMP assay, the medium was aspirated replaced with 50 µL PBS without Ca^2+ and Mg^2+ ions. The PBS was then extracted using snap inversion and the plate was softly tapped against tissue; 90 µL of Krebs-Ringer Bicarbonate buffer (Sigma-Aldrich) containing 1 mM IBMX was added and incubated for 60 min at 37°C and 5% CO2/95% air. A concentration range between 300 pM and 30 µM of test compounds was examined in duplicate. A standard curve with a range of cAMP concentrations (0.13 nM to 10 µM) was created per 96-well plate. Each experiment was accompanied with a reference plate that included three compounds; RO5256390, β-phenylethylamine, and p-tyramine. The cells were exposed to either 30 µl of compound solution, 30 µl of β-phenylethylamine (as maximal response), or a basal control in PBS (containing 1 mM IBMX) for 40 min at 37°C. Next, under forceful shaking using black lids, the cells were exposed to 50 µl of 3x detection mix solution (composed of Ru-cAMP Alexa700 anti-cAMP antibody and lysis buffer) for 120 min at room temperature in order to lyse the cells. Using the NanoScan reader (Innovative Optische Messtechnik, Berlin, Germany; 456 nm excitation wavelength; 630 and 700 nm emission wavelengths), the fluorescence was examined and the fluorescence resonance energy transfer (FRET) signal was determined using the following equation; FRET (700 nm) − P × FRET (630 nm), where P = Ru (700 nm)/Ru (630 nm). Receptor binding affinity at the human TAAR1 was not determined since unfortunately, there are no suitable radioligands available for this receptor.
Functional activity of the derivatives was only examined at the human TAAR1 and not at the mouse and rat TAAR1, because functional assays are not set up.

α2A adrenergic receptor = target: T2, α2A adrenergic receptor (Homo sapiens, UniProt P08913); assay: Radioligand binding, α2A adrenergic receptor ([3H]rauwolscine)
T2 construct: expressed in transfected cells; host or cells: Chinese hamster lung cell line (membrane preparation)
T2 sequence (P08913 1-465): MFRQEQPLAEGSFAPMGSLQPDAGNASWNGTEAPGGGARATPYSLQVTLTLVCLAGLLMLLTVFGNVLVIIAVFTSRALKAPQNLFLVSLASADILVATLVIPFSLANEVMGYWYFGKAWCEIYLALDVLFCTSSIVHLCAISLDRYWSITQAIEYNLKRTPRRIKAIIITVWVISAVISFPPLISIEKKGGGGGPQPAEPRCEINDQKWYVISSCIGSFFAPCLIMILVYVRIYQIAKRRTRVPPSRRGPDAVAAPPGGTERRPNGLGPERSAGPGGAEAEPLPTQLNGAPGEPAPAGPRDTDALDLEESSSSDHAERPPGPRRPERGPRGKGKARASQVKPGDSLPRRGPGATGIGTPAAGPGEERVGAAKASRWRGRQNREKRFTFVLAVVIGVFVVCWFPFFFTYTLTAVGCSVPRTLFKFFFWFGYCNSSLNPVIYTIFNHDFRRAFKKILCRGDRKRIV

hSERT = hSERT (Homo sapiens, UniProt P31645); assay: Radioligand binding, SERT ([3H]citalopram); set-up: expressed in transfected cells; host or cells: HEK 293 (membrane preparation)
Chain of hSERT (P31645 whole entry): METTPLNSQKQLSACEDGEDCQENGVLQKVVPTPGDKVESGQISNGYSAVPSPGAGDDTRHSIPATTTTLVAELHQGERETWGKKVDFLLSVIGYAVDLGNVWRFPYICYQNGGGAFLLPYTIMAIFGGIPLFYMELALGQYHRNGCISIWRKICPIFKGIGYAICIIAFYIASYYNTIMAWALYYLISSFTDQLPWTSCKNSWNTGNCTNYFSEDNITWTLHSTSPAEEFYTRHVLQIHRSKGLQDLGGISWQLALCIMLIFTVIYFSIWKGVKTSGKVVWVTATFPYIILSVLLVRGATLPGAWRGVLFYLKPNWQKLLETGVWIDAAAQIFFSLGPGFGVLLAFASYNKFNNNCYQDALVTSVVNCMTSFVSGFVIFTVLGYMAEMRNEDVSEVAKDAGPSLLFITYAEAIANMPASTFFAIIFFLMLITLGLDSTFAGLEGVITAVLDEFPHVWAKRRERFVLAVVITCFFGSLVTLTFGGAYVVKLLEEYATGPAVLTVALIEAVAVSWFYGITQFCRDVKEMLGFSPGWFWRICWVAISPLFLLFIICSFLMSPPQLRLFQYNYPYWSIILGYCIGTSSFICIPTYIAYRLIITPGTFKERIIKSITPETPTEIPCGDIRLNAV

Row | SMILES | EC50 (human TAAR1) [µM] | Ki (α2A adrenergic receptor) [µM] | Ki (hSERT) [µM]
1 | COc1cc(OCC(F)F)c(OC)cc1CC(C)N (stereo not drawn) [MDFEM, 4-(2,2-difluoroethoxy)-2,5-dimethoxyamphetamine] | > 30 | > 4.8 | > 8.6
2 | COc1cc(OC(C)C)c(OC)cc1CC(C)N (stereo not drawn) [MIPM, 2,5-dimethoxy-4-isopropoxyamphetamine] | > 30 | > 4.8 | > 8.6
3 | COc1cc(OCC(F)(F)F)c(OC)cc1CC(C)N (stereo not drawn) [MTFEM, 2,5-dimethoxy-4-(2,2,2-trifluoroethoxy)amphetamine] | > 30 | > 4.8 | > 8.6
4 | COc1cc(OCC(F)F)c(OC)cc1CCN [2C-O-21.5, 4-(2,2-difluoroethoxy)-2,5-dimethoxyphenethylamine] | > 30 | 1.9 ± 0.1 | > 8.6
5 | COc1cc(OCCF)c(OC)cc1CC(C)N (stereo not drawn) [MFEM, 2,5-dimethoxy-4-(2-fluoroethoxy)amphetamine] | > 30 | > 4.8 | > 8.6
6 | COc1cc(OCC(F)(F)F)c(OC)cc1CCN [2C-O-22, 2,5-dimethoxy-4-(2,2,2-trifluoroethoxy)phenethylamine] | 3.6 ± 2.4 | 1.8 ± 0.1 | > 8.6
7 | COc1cc(OCc2ccccc2)c(OC)cc1CCN [2C-O-27, 4-benzyloxy-2,5-dimethoxyphenethylamine] | > 30 | 0.57 ± 0.03 | > 8.6
8 | C=C(C)COc1cc(OC)c(CC(C)N)cc1OC (stereo not drawn) [MMALM, 2,5-dimethoxy-4-methallyloxyamphetamine] | > 30 | 2.4 ± 0.2 | > 8.6
9 | CCOc1cc(OC)c(CCN)cc1OC [2C-O-2, 2,5-dimethoxy-4-ethoxyphenethylamine] | 9.6 ± 6.34 | 2.6 ± 0.1 | > 8.6
10 | COc1cc(OCCF)c(OC)cc1CCN [2C-O-21, 2,5-dimethoxy-4-(2-fluoroethoxy)phenethylamine] | > 30 | 3.6 ± 0.5 | > 8.6
11 | C=CCOc1cc(OC)c(CCN)cc1OC [2C-O-16, 4-allyloxy-2,5-dimethoxyphenethylamine] | > 30 | 0.62 ± 0.02 | > 8.6
12 | C=C(C)COc1cc(OC)c(CCN)cc1OC [2C-O-3, 2,5-dimethoxy-4-methallyloxyphenethylamine] | > 30 | 0.18 ± 0.01 | > 8.6
13 | C=CCOc1cc(OC)c(CC(C)N)cc1OC (stereo not drawn) [MALM, 4-allyloxy-2,5-dimethoxyamphetamine] | > 30 | > 4.8 | > 8.6
